{"source": "ChEMBL document CHEMBL1177813", "about": "“Design and synthesis of trivalent ligands targeting opioid, cholecystokinin, and melanocortin receptors for the treatment of pain” (Bioorg Med Chem Lett, 2010)", "key": {"[1]": {"test": "Agonist activity at CCK receptor in Hartley guinea pig ileum longitudinal muscle with myenteric plexus assessed as inhibition of electrically-stimulated muscle contraction at 1 uM relative to KCl", "format": "functional, Cavia porcellus", "parameters": "scale not given: the % may be the effect or the level left"}, "[2]": {"target": "Delta-type opioid receptor (Homo sapiens, UniProt P41143)", "sequence (P41143 whole entry)": "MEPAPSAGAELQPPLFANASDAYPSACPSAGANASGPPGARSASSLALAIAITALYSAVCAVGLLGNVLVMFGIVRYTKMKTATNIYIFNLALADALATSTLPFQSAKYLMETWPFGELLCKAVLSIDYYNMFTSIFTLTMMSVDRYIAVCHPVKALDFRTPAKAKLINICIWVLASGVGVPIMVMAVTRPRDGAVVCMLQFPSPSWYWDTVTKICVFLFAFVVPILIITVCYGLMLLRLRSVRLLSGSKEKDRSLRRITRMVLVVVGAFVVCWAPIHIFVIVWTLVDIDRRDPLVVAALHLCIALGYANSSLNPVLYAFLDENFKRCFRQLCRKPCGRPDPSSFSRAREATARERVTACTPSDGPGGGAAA", "test": "Displacement of [3H]DPDPE from human delta opioid receptor expressed in mouse HN9.10 cells", "format": "cell-based"}, "[3]": {"target": "Mu-type opioid receptor (Rattus norvegicus, UniProt P33535)", "sequence (P33535 whole entry)": "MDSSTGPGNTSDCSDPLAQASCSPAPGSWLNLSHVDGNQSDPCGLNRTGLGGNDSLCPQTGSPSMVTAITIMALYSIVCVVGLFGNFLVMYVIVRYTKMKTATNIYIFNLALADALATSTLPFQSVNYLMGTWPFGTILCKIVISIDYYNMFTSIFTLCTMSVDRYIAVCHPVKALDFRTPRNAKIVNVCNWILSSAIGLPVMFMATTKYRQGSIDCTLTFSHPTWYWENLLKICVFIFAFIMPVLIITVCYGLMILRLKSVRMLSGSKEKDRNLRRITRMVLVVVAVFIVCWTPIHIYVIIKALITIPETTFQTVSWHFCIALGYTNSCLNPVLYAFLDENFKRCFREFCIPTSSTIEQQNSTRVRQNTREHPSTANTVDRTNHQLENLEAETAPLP", "test": "Displacement of [3H]DAMGO from rat mu opioid receptor expressed in mouse HN9.10 cells", "format": "cell-based"}, "[4]": {"target": "T1, Cholecystokinin receptor type A (Homo sapiens, UniProt P32238)", "T1 sequence (P32238 whole entry)": "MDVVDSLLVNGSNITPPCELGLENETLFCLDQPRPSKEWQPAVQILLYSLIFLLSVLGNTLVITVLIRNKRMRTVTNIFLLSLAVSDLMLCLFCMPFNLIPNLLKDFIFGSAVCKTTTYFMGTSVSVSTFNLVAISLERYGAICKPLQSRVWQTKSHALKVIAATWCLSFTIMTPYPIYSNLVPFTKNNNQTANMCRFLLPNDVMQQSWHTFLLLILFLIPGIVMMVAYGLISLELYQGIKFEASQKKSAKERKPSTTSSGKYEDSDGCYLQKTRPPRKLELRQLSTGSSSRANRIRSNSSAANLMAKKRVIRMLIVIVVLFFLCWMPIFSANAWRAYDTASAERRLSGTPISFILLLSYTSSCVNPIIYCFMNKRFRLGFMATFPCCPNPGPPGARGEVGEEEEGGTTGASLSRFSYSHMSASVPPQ", "test": "Displacement of [125I]CCK-8(SO3) from human CCK1 receptor expressed in human HEK293 cells", "format": "cell-based"}, "[5]": {"target": "T2, Gastrin/cholecystokinin type B receptor (Homo sapiens, UniProt P32239)", "T2 sequence (P32239 whole entry)": "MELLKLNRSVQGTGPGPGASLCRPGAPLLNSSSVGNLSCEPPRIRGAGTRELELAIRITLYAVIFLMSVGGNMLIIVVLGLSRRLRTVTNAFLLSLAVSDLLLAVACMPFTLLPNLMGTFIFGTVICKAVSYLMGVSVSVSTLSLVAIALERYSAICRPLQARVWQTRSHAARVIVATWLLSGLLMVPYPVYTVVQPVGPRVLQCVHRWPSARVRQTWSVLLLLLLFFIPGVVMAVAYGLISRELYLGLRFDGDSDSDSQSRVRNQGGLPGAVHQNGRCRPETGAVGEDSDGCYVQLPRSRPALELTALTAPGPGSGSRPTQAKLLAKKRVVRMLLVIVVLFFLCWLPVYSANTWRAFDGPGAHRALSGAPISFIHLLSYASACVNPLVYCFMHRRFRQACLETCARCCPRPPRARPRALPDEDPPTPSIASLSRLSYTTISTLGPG", "test": "Displacement of [125I]CCK-8(SO3) from human CCK2 receptor expressed in human HEK293 cells", "format": "cell-based"}, "[6]": {"target": "Melanocortin receptor 4 (Homo sapiens, UniProt P32245)", "sequence (P32245 whole entry)": "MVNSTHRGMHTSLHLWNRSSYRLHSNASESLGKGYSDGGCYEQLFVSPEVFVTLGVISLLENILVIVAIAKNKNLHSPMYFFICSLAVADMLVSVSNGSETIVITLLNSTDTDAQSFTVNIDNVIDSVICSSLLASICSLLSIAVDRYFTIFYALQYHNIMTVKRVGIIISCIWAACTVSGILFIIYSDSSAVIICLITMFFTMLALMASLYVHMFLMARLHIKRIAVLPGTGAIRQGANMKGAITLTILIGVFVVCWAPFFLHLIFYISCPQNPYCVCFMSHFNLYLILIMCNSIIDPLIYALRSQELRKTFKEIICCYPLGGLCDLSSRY", "test": "Displacement of Eu-NDP-alphaMSH from human MC4 receptor expressed in human HEK293 cells", "format": "cell-based"}, "[7]": {"target": "Delta-type opioid receptor (Mus musculus, UniProt P32300)", "sequence (P32300 whole entry)": "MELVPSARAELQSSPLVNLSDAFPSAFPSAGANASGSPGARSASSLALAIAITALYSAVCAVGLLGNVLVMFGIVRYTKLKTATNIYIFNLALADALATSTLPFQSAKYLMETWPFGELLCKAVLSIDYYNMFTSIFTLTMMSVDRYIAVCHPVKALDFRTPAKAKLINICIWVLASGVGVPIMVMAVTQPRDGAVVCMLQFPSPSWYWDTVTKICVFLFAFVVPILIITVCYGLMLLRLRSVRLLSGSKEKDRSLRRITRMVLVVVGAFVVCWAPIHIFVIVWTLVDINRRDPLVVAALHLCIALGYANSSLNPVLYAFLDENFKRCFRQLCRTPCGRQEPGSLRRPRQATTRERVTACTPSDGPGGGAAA", "test": "Antagonist activity at delta opioid receptor in mouse vas deferens assessed as inhibition of DPDPE-induced muscle contraction", "format": "functional, tissue-based"}, "[8]": {"target": "Mu-type opioid receptor (Cavia porcellus) (UniProt P97266)", "sequence (P97266 whole entry)": "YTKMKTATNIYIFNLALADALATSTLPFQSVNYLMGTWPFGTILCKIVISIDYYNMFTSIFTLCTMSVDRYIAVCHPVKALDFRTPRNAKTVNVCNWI", "test": "Agonist activity at mu opioid receptor in guinea pig ileum assessed as inhibition of electrically-stimulated muscle contraction at 1 uM", "format": "functional, tissue-based", "parameters": "scale not given: the % may be the effect or the level left"}, "[9]": {"species": "Cavia porcellus", "test": "[…] activity at CCK receptor in Hartley guinea pig ileum longitudinal muscle with myenteric plexus assessed as inhibition of CCK8-stimulated muscle contraction at 1 uM", "format": "functional, tissue-based"}}, "note": "Activity calls are given as the source filed them. The calls are words filed in the database; no cut-off is given here.", "data": [{"smiles": "CCCC[C@H](NC(=O)[C@H](Cc1c[nH]c2ccccc12)NC(=O)[C@H](CCCNC(=N)N)NC(=O)[C@@H](Cc1ccc2ccccc2c1)NC(=O)[C@H](Cc1cnc[nH]1)NC(=O)[C@@H]1Cc2ccccc2CN1C(=O)C(N)Cc1c(C)cc(O)cc1C)C(=O)N[C@@H](CC(=O)O)C(=O)N[C@@H](Cc1ccccc1)C(N)=O", "note": "(single isomer, unassigned)", "values": [{"measurement": "Activity", "setting": "[1]", "result": 0, "unit": "%"}, {"measurement": "IC50", "setting": "[2]", "result": 2, "unit": "nM"}, {"measurement": "Ki", "setting": "[2]", "result": 0.91, "unit": "nM"}, {"measurement": "IC50", "setting": "[3]", "result": 100, "unit": "nM"}, {"measurement": "Ki", "setting": "[3]", "result": 47, "unit": "nM"}, {"measurement": "IC50", "setting": "[4]", "result": 15.8, "unit": "nM"}, {"measurement": "Ki", "setting": "[4]; read-out: Ki", "result": 15, "unit": "nM"}, {"measurement": "IC50", "setting": "[5]", "result": 200, "unit": "nM"}, {"measurement": "Ki", "setting": "[5]; read-out: Ki", "result": 200, "unit": "nM"}, {"measurement": "IC50", "setting": "[6]", "result": 230, "unit": "nM"}, {"measurement": "IC50", "setting": "[7]", "result": 2.5, "unit": "nM"}, {"measurement": "Activity", "setting": "[8]", "result": 5, "unit": "%"}, {"measurement": "Ke", "setting": "[9]", "result": "inactive"}]}]}
